From US20110118464A1, “HALOGENATED XANTHINE DERIVATIVES AND PRECURSORS THEREOF FOR ANTI-CANCER AND ANTI-METASTASIS ACTIVITY AND PREPARING METHOD THEREOF” (Kaohsiung Medical University, priority 2009, published 2011)

Tests used:
[1] = tested on: human prostate carcinoma LNCaP; test: Analysis of cell cycle in LNCaP; type: cell-based; settings: increased concentrations, 24 and 48 hours, FIG. 8
Protocol: The counted cells (10^5 cells/ml×3 ml) are seeded in the 6-well cell culture plate for 24 hours for attaching on the bottom of the cell culture plate, then DMEM/F12 medium without fetal bovine serum (FBS) is added therein for further incubation for 24 hours. Next, the medium is replaced with DMEM/F12 supplemented with 10% FBS, and the drugs at different concentrations are respectively added therein for reacting 24 and 48 hours. The cellular inoculate is harvested, and the wells are washed with phosphate buffered saline (PBS) for twice or triplet. The cells are eluted with 0.25% trypsin-0.02% EDTA, and are collected with the original inoculate in the centrifuge tube which is centrifuged at 4° C. at 1250×g (1200 rpm) for 5 minutes. Next, the supernatant is discarded and the pellet is resuspended in 1 ml PBS and the resuspended cells are transferred to an eppendorf tube which is centrifuged once again. The supernatant is discarded, and the cells are fixed with 300 μl PBS (4° C.) and 700 μl of 99.5% ethanol (50, 50, 100, 100, 200 and 200 μl ethanol respectively and sequentially added to make the cells resuspended in the well) for 30 minutes. […] The cells are transferred into a tube, and the cells are detected using CyFlow® cytometer. The ratios of G0/G1, S and G2/M phases are determined using multicycle DNA analysis software.

[2] = tested on: cGMP (3′,5′-cyclic guanosine monophosphate); test: cGMP concentration in LNCaP cells; type: cell-based, human; settings: for cGMP concentration: 48 hours, FIG. 9(A)
[3] = tested on: cAMP (cyclic adenosine monophophate); test: cAMP concentration in LNCaP cells; type: cell-based, human
AR (androgen receptor) = test: Immunoblotting of AR in LNCaP; type: cell-based, human; settings: 100 μM, 48 hours, FIG. 10(A)
Protocol: (§1) The amount of protein is determined by Bio-Rad protein reagent. Bovine serum albumin (BSA) of 0.1 mg/ml is the protein standard in the protein assay. Distilled water of 240 μl containing various known protein standards (the amounts of protein respectively are 0, 2, 4, 8, 12, 16, 20 and 30 μg) and 60 μl of Bio-Rad reagent are mixed gently in 96-well cell culture plate. The absorbance at the wavelength of 595 nm relative to the absorbance of blank test is determined using spectrophotometer (Hitachi U-200, Japan). A standard curve is evaluated from the known amounts of the protein standards and the absorbance thereof, and the amounts of the unknown proteins can be obtained according to this standard curve.
(§2) The quantified proteins are resolved by sodium dodecyl sulfate-polyacrylamide gel electrophoresis (SDS-PAGE), and the protein expression is evaluated by immunoblotting. The dilution rate of primary antibodies (i.e. anti-AR, anti-p21, anti-p27, anti-cyclin D, anti-cdk4 and anti-cdk6) is 1000 times, and that of anti-β-actin is 5000 times. The primary antibody detects the proteins for 1 hour, and the primary antibody is detected with the horseradish peroxidase (HRP)-conjugated secondary antibody for 1 hour. Finally, the detected protein are developed with enhanced chemical luminescence.

[4] = tested on: dihydrotestosterone receptor; test: Dihydrotestosterone receptor expression in LNCaP; type: cell-based, human; settings: 100 μM, 48 hours, FIG. 10(B)
Protocol: as §1, §2

p21 protein = test: Immunoblotting of p21 in LNCaP; type: cell-based, human
Protocol: as §1, §2

p27 protein = test: Immunoblotting of p27 in LNCaP; type: cell-based, human
Protocol: as §1, §2

Cyclin D protein = test: Immunoblotting of Cyclin D in LNCaP; type: cell-based, human
Protocol: as §1, §2

CDK4 protein = test: Immunoblotting of CDK4 in LNCaP; type: cell-based, human
Protocol: as §1, §2

Bax = Bax expression in LNCaP; type: cell-based, human; settings: various concentrations, 48 hours, FIG. 16(A)
Bcl-2 = Bcl-2 expression in LNCaP; type: cell-based, human; settings: various concentrations, 48 hours, FIG. 16(B)
Bax/Bcl-2 ratio = Bax/Bcl-2 ratio in LNCaP; type: cell-based, human; settings: various concentrations, 48 hours, FIG. 16(C)
LNCaP prostate tumor = test: Tumor size in LNCaP-xenografted rude mice; type: in vivo; settings: for dose at which the significant effect is obtained: data not shown; for effect on LNCaP prostate tumor compared with the control: once per day for two months
Protocol: In addition to observe the inhibition effect of the halogenated xanthine derivatives on the cancer cell lines in the cellular level, the animal experiments are further performed. LNCaP-xenografted rude mice are injected intraperitoneally with KMUP-1 ([…]) and dosed orally with KMUP-1 (200 and 400 mg/kg) respectively once per day, and a continuity for two months. […] The significant effect can be obtained (data not shown) when KMUP-1 is 100 mg/kg. […] The significant effect can be obtained (data not shown) when KMUP-1 is 200 mg/kg.

[5] = Body weight of LNCaP-xenografted rude mice; type: in vivo
[6] = tested on: human prostate epithelial PZ-HPV-7; settings: Liu et al., 2007; cited from earlier work
PZ-HPV-7 cells = settings: Liu et al., 2007; cited from earlier work
p21 = settings: Liu et al., 2007; cited from earlier work
[7] = tested on: human prostate carcinoma PC-3; test: MTT assay, survival rate of PC-3; settings: various concentrations, 24 and 48 hours, FIG. 7(C)
[8] = tested on: human prostate carcinoma LNCaP; test: MTT assay, survival rate of LNCaP; settings: various concentrations, 24 and 48 hours, FIG. 7(A)
[9] = tested on: human prostate carcinoma DU145; test: MTT assay, survival rate of DU145; settings: various concentrations, 24 and 48 hours, FIG. 7(B)
[10] = tested on: human tongue squamous cell carcinoma SCC-25; test: MTT assay, survival rate of SCC-25; settings: 0.1-100 μM, 24 and 48 hours, FIG. 2

Cn1c(=O)c2c(ncn2CCN2CCN(c3ccccc3Cl)CC2)n(C)c1=O [KMUP-1, 7-[2-[4-(2-chlorobenzene)piperazinyl]ethyl]-1,3-dimethylxanthine]
effect on cell cycle [1]: cease in G0/G1 phase and tend to sub-G1 phase | cGMP concentration ([2]; KMUP-1 individually): increases the content of cGMP | cGMP concentration ([2]; together with 1 μM ODQ): the increased effect is not significant as KMUP-1 individually functioned on LNCaP cells | cAMP concentration versus 100 μM KMUP-1 individually ([3]; 100 μM KMUP-1 plus 10 μM SQ22536, 48 hours): can decrease the amount of cAMP in LNCaP cells | cAMP concentration ([3]; KMUP-1 individually, 48 hours, FIG. 9(B)): increases the amount of cAMP in LNCaP cells | AR expression (AR (androgen receptor)): completely inhibited | dihydrotestosterone receptor expression [4]: relatively low | p21 expression at 100 μM relative to that at 1 μM (p21 protein): four times | p21 expression (p21 protein; various concentrations, 24 and 48 hours, FIG. 11): would be increased | p27 expression at 100 μM relative to that at 1 μM (p27 protein; 24 hours): twice | p27 expression (p27 protein; various concentrations, 24 and 48 hours, FIG. 12): would be increased | Cyclin D expression at 100 μM relative to that at 1 μM (Cyclin D protein; 24 hours): one ninth | Cyclin D expression at 100 μM relative to that at 1 μM (Cyclin D protein; 48 hours): 20% | Cyclin D expression (Cyclin D protein; various concentrations, 24 and 48 hours, FIG. 13): would be decreased | CDK4 expression at 100 μM relative to that at 1 μM (CDK4 protein; 48 hours): 50% | CDK4 expression (CDK4 protein; various concentrations, 24 and 48 hours, FIG. 14): would be decreased | Bax expression (Bax): has no difference with the increased concentration of KMUP-1 | Bcl-2 expression (Bcl-2): decreases with the increased concentration of KMUP-1 | Bax/Bcl-2 ratio (Bax/Bcl-2 ratio): increases with the increased concentration of KMUP-1 | LNCaP prostate tumor size (LNCaP prostate tumor; injected subcutaneously, 100 and 150 mg/kg, FIG. 17(A)): does not enlarge anymore | dose at which the significant effect is obtained (LNCaP prostate tumor; intraperitoneal injection): 100 mg/kg | effect on LNCaP prostate tumor compared with the control (LNCaP prostate tumor; intraperitoneal injection): can significantly eliminate the LNCaP prostate tumor | dose at which the significant effect is obtained (LNCaP prostate tumor; oral dosage): 200 mg/kg | effect on LNCaP prostate tumor compared with the control (LNCaP prostate tumor; oral dosage): can significantly eliminate the LNCaP prostate tumor | LNCaP prostate tumor size (LNCaP prostate tumor; orally dosed, 400 mg/kg, FIG. 18(A)): does not enlarge anymore | body weight, experimental group versus control group ([5]; dosed orally, eight weeks, FIG. 18(B)): do not have significant difference | body weight ([5]; subcutaneous injection, FIG. 17(B)): can decrease the body weight | growth of PZ-HPV-7 [6]: can inhibit the growth | effect on cell cycle of PZ-HPV-7 (PZ-HPV-7 cells): cease of cell cycle at G0/G1 phase | p21 expression in PZ-HPV-7 (p21): increase p21 expression | survival rate relative to the control [7]: decrease with the increased concentrations of KMUP-1 | survival rate relative to the control [8]: decrease with the increased concentrations of KMUP-1 | survival rate relative to the control [9]: decrease with the increased concentrations of KMUP-1 | survival rate relative to the control [10]: decreases with the increased concentrations of KMUP-1

O=c1onc2cnc3ccccc3n12 [ODQ, 1H-[1,2,4]oxadiazolo[4,3-a]quinoxalin-1-one, reference compound]
antagonism of the KMUP-1 effect on cGMP ([2]; 1 μM ODQ with KMUP-1, 48 hours): antagonists to each other

Nc1ncnc2c1ncn2C1CCCO1 (stereo not drawn) [SQ22536, reference compound]
antagonism of the KMUP-1 effect on cAMP ([3]; 10 μM SQ22536 with 100 μM KMUP-1, 48 hours): can antagonize the improved effect of KMUP-1
